The numbers were not newly measured in US11246852B2, “Fast-acting plant-based medicinal compounds and nutritional supplements” (RECEPTOR HOLDINGS, INC., priority 2016, dated 2022), which cites them from elsewhere.

In the case of `CCCCCc1cc(O)c2c(c1)OC(C)(C)[C@@H]1CCC(C)=C[C@@H]21` [THC, delta-9-tetrahydrocannabinol], under “after administration”, the “appetite stimulant effect may continue for” value is ≥ 24 h. The duration of action (after oral administration, psychoactive effects) was 4 to 6 h.
